Earlier results, collected in patent publication US20230000905A1, “IODINE AND POLYOL COMPOSITION, METHOD, AND USE” (priority 2020, published 2023).

Tested on: rhinovirus
Details: molecular iodine at the tested concentrations

For `II` [molecular iodine], which “time to inactivate rhinovirus” value is on record?
The value was 30 s.
